Patent US6448286B1, “Imino pyrrolidine derivatives useful as nitric oxide synthase inhibitors” (G.D. Searle & Co., priority 1993, dated 2002)
Structures can show the parent of a compound that is named as a salt. Where two headings read alike, the source gives them in different places.

Key:
[1] = target: T1, Mouse inducible nitric oxide synthase (miNOS) (Mus musculus, UniProt P29477); assay: biochemical; conditions: for iNOS, % @ 10 μM: 10 μM compound; for IC50: read-out: iNOS
T1 construct: prepared from an extract of LPS-treated RAW 264.7 cells and partially purified by DEAE-Sepharose chromatography; endogenous in cells; host or cells: LPS-treated RAW 264.7 cells (mouse macrophage line)
Protocol: Nitric oxide synthase activity was measured by monitoring the conversion of [3H]-arginine to [3H]-citrulline. Mouse inducible nitric oxide synthase (miNOS) was prepared from an extract of LPS-treated RAW 264.7 cells and partially purified by DEAE-Sepharose chromatography. […] Enzyme and inhibitors were incubated at 37° C. for 15 minutes in a reaction volume of 100 mL with the following components added to start the reaction: 50 mM Tris (pH 7.6), 1 mg/ml bovine serum albumin, 1 mM DTT, 2 mM CaCl2, 10 mM FAD, 10 mM tetrahydrobiopterin, 30 mM L-arginine containing L-[2,3-3H]-arginine at 300 cpm/pmole and 1 mM NADPH. […] The reaction was terminated by addition of cold stop buffer containing 10 mM EGTA, 100 mM HEPES, pH 5.5 and 1 mM citrulline. [3H]-Citrulline was separated by chromatography on Dowex 50W X-8 cation exchange resin and radioactivity determined with a liquid scintillation counter.

[2] = target: T2, Rat brain constitutive nitric oxide synthase (rnNOS) (Rattus norvegicus, UniProt P29476); assay: Citrulline assay for nitric oxide synthase (cNOS); format: biochemical
T2 construct: prepared from an extract of rat cerebellum and partially purified by DEAE-Sepharose chromatography; from tissue; host or cells: rat cerebellum
Protocol: Nitric oxide synthase activity was measured by monitoring the conversion of [3H]-arginine to [3H]-citrulline. Mouse inducible nitric oxide synthase (miNOS) was prepared from an extract of LPS-treated RAW 264.7 cells and partially purified by DEAE-Sepharose chromatography. Rat brain constitutive nitric oxide synthase (rnNOS) was prepared from an extract of rat cerebellum and partially purified by DEAE-Sepharose chromatography. Enzyme and inhibitors were incubated at 37° C. for 15 minutes in a reaction volume of […] with the following components added to start the reaction: 50 mM Tris (pH 7.6), 1 mg/ml bovine serum albumin, 1 mM DTT, 2 mM CaCl2, 10 mM FAD, 10 mM tetrahydrobiopterin, […] L-arginine containing L-[2,3-3H]-arginine at 300 cpm/pmole and 1 mM NADPH. For constitutive NOS, 50 nM calmodulin was also added. The reaction was terminated by addition of cold stop buffer containing 10 mM EGTA, 100 mM HEPES, pH 5.5 and 1 mM citrulline. [3H]-Citrulline was separated by chromatography on Dowex 50W X-8 cation exchange resin and radioactivity determined with a liquid scintillation counter.

[3] = tested on: intracellular iNOS in LPS-induced RAW 264.7 cells; assay: Raw cell nitrite assay; format: cell-based; conditions: Mus musculus, read-out: Raw Cell IC50
Protocol: RAW 264.7 cells are plated to confluency on a 96-well tissue culture plate grown overnight (17h) in the presence of LPS to induce NOS. […] The media was removed from each well and the cells are washed twice with Krebs-Ringers-Hepes (25 mM, pH 7.4) with 2 mg/ml glucose. The cells are then placed on ice and incubated with […] of buffer containing L-arginine (30 mM) +/− inhibitors for 1 h. The assay is initiated by warming the plate to 37° C. in a water bath for 1 h. […] To terminate the cellular assay, the plate of cells is placed on ice and the nitrite-containing buffer removed and analyzed for nitrite using a previously published fluorescent determination for nitrite. […] All values are the average of triplicate wells and are compared to a background-subtracted induced set of cells (100% value).

[4] = tested on: LPS-induced increase in plasma nitrites; assay: In vivo assay: endotoxin (LPS)-induced plasma nitrites in rat; conditions: Low Endotoxin in Rat Model
Protocol: Rats were treated with an intraperitoneal injection of 10 mg/kg of endotoxin (LPS) with or without oral administration of the nitric oxice synthase inhibitors. Plasma nitrites were measured 5 hours post-treatment.
IP is the abbreviation for 2-iminopiperidine. LPS is the abbreviation for endotoxin

[5] = printed as % only (inhibition not stated)
[6] = conversion of [3H]-arginine to [3H]-citrulline, 37° C., 15 minutes
[7] = RAW264.7, nitrite production, RAW 264.7 cells, LPS-induced, 1 h at 37° C.
[8] = conversion of [3H]-arginine to [3H]-citrulline, 50 nM calmodulin added, read-out: cNOS IC50
[9] = 100 μM compound, printed as % only (inhibition not stated)

T2 sequence (P29476 whole entry): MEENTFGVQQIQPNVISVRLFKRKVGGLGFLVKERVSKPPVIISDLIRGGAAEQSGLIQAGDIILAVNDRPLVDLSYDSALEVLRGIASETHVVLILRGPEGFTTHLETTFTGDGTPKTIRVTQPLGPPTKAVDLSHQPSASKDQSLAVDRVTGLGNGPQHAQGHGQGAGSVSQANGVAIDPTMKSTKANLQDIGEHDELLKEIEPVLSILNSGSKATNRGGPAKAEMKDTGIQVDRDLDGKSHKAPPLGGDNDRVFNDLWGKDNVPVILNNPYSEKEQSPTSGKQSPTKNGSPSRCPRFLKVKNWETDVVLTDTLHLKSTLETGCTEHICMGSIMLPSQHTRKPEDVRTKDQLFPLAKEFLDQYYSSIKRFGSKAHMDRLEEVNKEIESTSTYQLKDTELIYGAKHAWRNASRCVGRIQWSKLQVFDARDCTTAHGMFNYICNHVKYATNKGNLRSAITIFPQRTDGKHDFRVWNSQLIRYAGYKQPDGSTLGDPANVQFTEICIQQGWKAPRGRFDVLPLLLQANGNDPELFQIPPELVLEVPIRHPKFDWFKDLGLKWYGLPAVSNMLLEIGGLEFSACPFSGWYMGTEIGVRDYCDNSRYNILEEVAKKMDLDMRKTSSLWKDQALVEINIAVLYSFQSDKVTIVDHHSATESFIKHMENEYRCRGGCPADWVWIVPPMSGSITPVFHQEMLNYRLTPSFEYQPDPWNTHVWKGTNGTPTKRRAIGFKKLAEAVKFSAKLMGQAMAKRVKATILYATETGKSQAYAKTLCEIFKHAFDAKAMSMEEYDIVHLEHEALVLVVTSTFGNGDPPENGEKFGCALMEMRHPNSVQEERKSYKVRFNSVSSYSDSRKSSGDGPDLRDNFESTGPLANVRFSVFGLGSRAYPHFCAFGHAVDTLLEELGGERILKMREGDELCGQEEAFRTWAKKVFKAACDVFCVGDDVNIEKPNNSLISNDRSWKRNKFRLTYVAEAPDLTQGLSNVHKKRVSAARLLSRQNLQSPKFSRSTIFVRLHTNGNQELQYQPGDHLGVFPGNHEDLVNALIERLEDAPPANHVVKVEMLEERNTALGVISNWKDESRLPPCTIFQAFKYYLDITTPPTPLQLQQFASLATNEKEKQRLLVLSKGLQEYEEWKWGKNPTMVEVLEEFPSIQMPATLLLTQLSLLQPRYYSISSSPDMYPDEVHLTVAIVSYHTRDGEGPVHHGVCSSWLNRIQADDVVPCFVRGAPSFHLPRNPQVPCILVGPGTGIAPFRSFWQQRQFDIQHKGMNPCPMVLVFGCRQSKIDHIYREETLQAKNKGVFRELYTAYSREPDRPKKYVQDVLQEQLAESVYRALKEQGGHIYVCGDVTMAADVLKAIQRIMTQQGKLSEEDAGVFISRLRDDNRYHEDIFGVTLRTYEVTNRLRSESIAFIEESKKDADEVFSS
T1 sequence (P29477 whole entry): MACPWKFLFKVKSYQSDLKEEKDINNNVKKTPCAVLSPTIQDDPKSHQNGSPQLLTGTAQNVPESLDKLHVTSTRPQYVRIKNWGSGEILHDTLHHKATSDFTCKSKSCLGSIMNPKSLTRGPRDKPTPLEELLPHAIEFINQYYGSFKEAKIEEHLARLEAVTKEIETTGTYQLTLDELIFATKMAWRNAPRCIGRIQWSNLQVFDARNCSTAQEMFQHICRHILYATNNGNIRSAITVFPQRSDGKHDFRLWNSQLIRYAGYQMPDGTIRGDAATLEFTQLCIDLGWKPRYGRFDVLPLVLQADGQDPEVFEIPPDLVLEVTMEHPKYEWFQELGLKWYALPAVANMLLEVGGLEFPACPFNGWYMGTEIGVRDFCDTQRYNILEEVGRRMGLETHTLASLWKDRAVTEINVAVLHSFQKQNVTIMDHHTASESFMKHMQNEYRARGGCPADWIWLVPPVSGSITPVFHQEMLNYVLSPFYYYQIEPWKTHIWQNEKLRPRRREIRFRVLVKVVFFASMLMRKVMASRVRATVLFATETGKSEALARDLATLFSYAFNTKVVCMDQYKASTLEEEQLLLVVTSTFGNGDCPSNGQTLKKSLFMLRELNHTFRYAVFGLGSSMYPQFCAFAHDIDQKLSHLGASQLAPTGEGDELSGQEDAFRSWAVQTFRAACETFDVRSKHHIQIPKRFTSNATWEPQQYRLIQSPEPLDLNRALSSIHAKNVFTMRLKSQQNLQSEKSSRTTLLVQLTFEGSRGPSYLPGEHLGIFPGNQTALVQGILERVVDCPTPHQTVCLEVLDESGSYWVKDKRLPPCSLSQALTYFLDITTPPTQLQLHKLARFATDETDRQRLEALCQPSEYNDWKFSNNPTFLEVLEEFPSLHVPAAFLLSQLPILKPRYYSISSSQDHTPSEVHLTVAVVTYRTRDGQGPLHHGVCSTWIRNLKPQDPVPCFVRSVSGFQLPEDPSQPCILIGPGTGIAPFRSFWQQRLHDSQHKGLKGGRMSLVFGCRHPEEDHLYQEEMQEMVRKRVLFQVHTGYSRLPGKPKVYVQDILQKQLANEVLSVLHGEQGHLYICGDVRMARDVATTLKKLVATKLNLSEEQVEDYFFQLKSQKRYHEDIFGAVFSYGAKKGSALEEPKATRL

SMILES | IC50 [2] | IC50 ([3]; RAW264.7, 1 h) | IC50 [1, 6] | further results
Cl.N=C1CC(C(=O)O)CCN1 (centres unmarked) | – | – | – | melting point: 230 to 234 °C
CC1CCC(=N)NC1 (centres unmarked) (as salt: acetate) [Example 7, 2-Imino-5-methylpiperidine acetate] | – | – | – | melting point: 175 to 178 °C
CC1CCCNC1=N (centres unmarked) (as salt: acetate) [Example 9, 2-imino-3-methylpiperidine acetate] | – | – | – | melting point: 88 to 100 °C
CC1CC(=N)NC(C)C1 (centres unmarked) (as salt: acetate) [Example 10, 2-imino-4,6-dimethylpiperidine acetate] | – | – | – | melting point: 163 to 166 °C
N=C1NCCCC1O (centres unmarked) (as salt: acetate) [Example 11, 2-Imino-3-hydroxypiperidine acetate] | – | – | – | melting point: 128 to 130 °C
CC1CCC(O)C(=N)N1 (centres unmarked) (as salt: acetate) [Example 277, 3-hydroxy-2-imino-6-methylpiperidine acetate] | – | – | – | melting point: 158 to 160 °C
CN=C1CCCCCN1 (as salt: hydroiodid) | – | – | – | melting point: 169 to 171 °C
CN1CCCCC1=N (as salt: hydroiodid) | – | – | – | melting point: 157 to 158 °C
CN1CCCCCC1=N (as salt: hydroiodid) | – | – | – | melting point: 137 to 139 °C
Cl.N=C1NC[C@H]2CCCC[C@H]12 (relative stereo) [Example 173, (trans)-octahydro-2H-isoindol-1-imine, monohydrochloride] | – | – | – | iNOS, % @ 10 μM [1, 5]: 42% @ 10 μM
NC1=NCCCCCC1 [Example 1, 2-Imino-heptamethyleneimine hydrochloride] | 13.3 µM | 60 µM | 2.1 µM | –
N=C1CCCCCCCN1 [Example 2, 2-Imino-octamethyleneimine hydrochloride] | 9.9 µM | > 1000 µM | 2.2 µM | –
Cl.N=C1CCC2=C(CCCC2)N1 [Example 3, 3,4,5,6,7,8-hexahydro-2[1H]-quinolineimine hydroiodide] | – | – | – | iNOS, % @ 10 μM [1, 5]: 43% * 10 μM; melting point: 150 to 155 °C
CC1CCNC1=N (centres unmarked) [Example 4, 2-Imino-3-methyltetramethyleneimine hydriodide] | 2.4 µM | 14 µM | 4.6 µM | –
CC1CCC(N)=N1 (centres unmarked) [Example 5, 2-Imino-5-methyltetramethyleneimine hydriodide] | 9.4 µM | – | 3.2 µM | IC50 [3, 7]: 18 µM
CC1CCN=C(N)C1 (centres unmarked) [Example 6, 2-Imino-4-methylpiperidine acetate] | – | – | – | IC50 [1]: 0.055 µM
CC1CCC(N)=NC1 (centres unmarked) [Example 7, 2-Imino-5-methylpiperidine acetate] | 13.3 µM | – | 2 µM | –
CC1CCCC(=N)N1.Cl (centres unmarked) [Example 8, 2-Imino-6-methylpiperidine hydrochloride] | 0.99 µM | – | 0.16 µM | melting point: 160 to 162 °C
CC1CCCN=C1N (centres unmarked) [Example 9, 2-imino-3-methylpiperidine acetate] | 2.01 µM | – | 1.5 µM | –
CC1CC(N)=NC(C)C1 (centres unmarked) [Example 10, 2-imino-4,6-dimethylpiperidine acetate] | – | – | 0.043 µM | IC50 [2, 8]: 0.127 µM
N=C1NCCCC1O (centres unmarked) [Example 11, 2-Imino-3-hydroxypiperidine acetate] | 2.77 µM | – | 0.92 µM | –
NC1=NCCC1 [Example 12, 2-iminopyrrolidine hydrochloride] | 32 µM | 1.8 µM | – | IC50 [1]: 5.1 µM
N=C1CCCCN1 [Example 13, 2-Iminopiperidine hydrochloride] | 2 µM | 14 µM | 0.6 µM | –
NC1=NCCCN1 [Example 14, 2-Iminotetrahydropyrimidine hemihydrosulfate] | – | > 1000 µM | – | IC50 [2, 8]: 23 µM

SMILES | IC50 [2] | IC50 ([3]; RAW264.7, 1 h) | IC50 [1, 6] | further results
N=C1NCCN1 [Example 15, 2-Iminoimidazolidine] | – | – | – | iNOS, % @ 10 μM [1, 5]: 8% @ 10 μM
N=C1NCCS1 [Example 16, 2-Iminothiazolidine hydrochloride] | – | – | – | IC50 [3, 7]: 4.3 µM
NC1=NCCCS1 [Example 17, 2-Imino-3-thiapiperidine hydrochloride] | 2.7 µM | 28 µM | 0.8 µM | –
NC1=NCCCO1 [Example 18, hydrochloride] | 6 µM | 6 µM | 0.8 µM | –
N=C1NCCO1 [Example 19, 2-Iminooxazolidine] | – | – | – | iNOS, % @ 10 μM [1, 5]: 42% @ 10 μM
N=C1NCC(CCl)O1 (centres unmarked) [Example 20, 5-Chloromethyl-2-iminooxazolidine] | 5 µM | – | 1 µM | IC50 [3, 7]: 160 µM
N=C1N[C@H]2[C@H](CS[C@H]2CCCCC(=O)O)N1 [Example 21, 2-Iminobiotin] | – | > 1000 µM | 40 µM | IC50 [2, 8]: 500 µM
CCOC(=O)CCCC[C@@H]1SC[C@@H]2NC(=N)NC21 (some centres unmarked) [Example 22, 2-Iminobiotin ethyl ester] | 1300 µM | – | 30 µM | IC50 [3, 7]: > 1000 µM
CN1CCCNC1=N [Example 23, 1-Methyl-2-iminotetrahydropyrimidine] | – | – | – | iNOS, % @ 10 μM [1, 5]: 41% @ 10 μM
CCC1CCCCNC1=N (centres unmarked) [Example 60, 3-ethyl-hexahydro-1H-azepin-2-imine, monohydrochloride] | 32 µM | 3.5 µM | – | –
CC1CCNC(=N)CC1 (centres unmarked) [Example 70, hexahydro-5-methyl-1H-azepin-2-imine, monohydrochloride] | 32 µM | 24 µM | 5.9 µM | –
C[C@@H]1CCCC(N)=NC1 [Example 90, hexahydro-6R-methyl-1H-azepin-2-imine, monohydrochloride] | 46 µM | – | 7 µM | –
Cl.N=C1CCCCC(C2CCCCC2)N1 (centres unmarked) [Example 96, 7-cyclohexyl-hexahydro-1H-azepin-2-imine, monohydrochloride] | 1400 µM | – | 9.3 µM | ED50 ([4]; po, administered p.o.): 3.8 mg/kg
C=CCC1CCCCNC1=N (centres unmarked) [Example 107, hexahydro-3-(2-propenyl)-1H-azepin-2-imine, monohydrochloride] | 342 µM | 15 µM | 3.8 µM | –
C=CCC1CCCCC(=N)N1.Cl (centres unmarked) [Example 108, hexahydro-7-(2-propenyl)-1H-azepin-2-imine, monohydrochloride] | 19 µM | 0.57 µM | – | ED50 ([4]; po, administered p.o.): 3.7 mg/kg
CCCC1CCCCC(=N)N1.Cl (centres unmarked) [Example 114, hexahydro-7-propyl-1H-azepin-2-imine, monohydrochloride] | 7.8 µM | 0.55 µM | – | ED50 ([4]; po, administered p.o.): 3.4 mg/kg
Cl.N=C1CCc2ccccc2N1 [Example 164, 1,2,3,4-tetrahydroquinolin-2-imine, monohydrochloride] | – | – | – | cNOS, % @ 100 μM [2, 9]: 74% @ 100 μM; iNOS, % @ 100 μM [1, 9]: 60% @ 100 μM
CC1(C)CCN=C(N)C1 [Example 170, 4,4-dimethylpiperidin-2-imine, monohydrochloride] | 53 µM | – | – | –
CC1CN=C(N)C1 (centres unmarked) [Example 182, 4-methylpyrrolidin-2-imine, monohydrochloride] | 14 µM | – | 1.4 µM | –
CCCCC1CCCCC(=N)N1.Cl (centres unmarked) [Example 188, 7-butylhexahydro-1H-azepin-2-imine, monohydrochloride] | 106 µM | 0.65 µM | 0.55 µM | ED50 ([4]; po, administered p.o.): 3.7 mg/kg
NC1=NC(c2ccccc2)CCCC1 (centres unmarked) [Example 192, hexahydro-7-phenyl-1H-azepin-2-imine, monohydrochloride] | 179 µM | 31 µM | – | IC50 [1]: 12 µM
CCC(CC)CC1CCCCC(=N)N1.Cl (centres unmarked) [Example 198, 7-(2-ethylbutyl)hexahydro-1H-azepin-2-imine, monohydrochloride] | 652 µM | 3.3 µM | 2.1 µM | ED50 ([4]; determined using iv infusion): 5 mg/kg
CCC1NC(=N)CC1C (centres unmarked) [Example 217, 5-ethyl-4-methylpyrrolidin-2-imine, monohydrochloride] | 1.6 µM | 0.25 µM | 0.17 µM | –
